Results reported in patent US20260265305A1, “POLYPEPTIDE DERIVATIVE FOR ORAL DELIVERY” (Hangzhou Sciwind Biosciences Co., Ltd., priority 2023, published 2026).
Read-outs that look alike come from different tables or passages of the source. Square brackets hold non-standard residues; d marks the D form. Peptide text beside a SMILES is read from it. * marks the point of attachment. C20 diacid = O=C(O)CCCCCCCCCCCCCCCCCCC(=O)*; C18 diacid = O=C(O)CCCCCCCCCCCCCCCCC(=O)*; Trx = NC[C@H]1CC[C@H](C(=O)O)CC1; AEEA = NCCOCCOCC(=O)O; Inp = O=C(O)C1CCNCC1

Experiments:
[1] = Heat accelerated stability assay of polypeptide solutions (40° C., pH about 7.4), reversed phase chromatography; assay type: physicochemical; settings: 40° C.; for Concentration change on 7 d / Concentration change on 26 d: pH about 7.4, 1 mg/mL; for Concentration change on 7 d / Purity change on 7 d: Day 7; for Concentration change on 26 d / Purity change on 26 d: Day 26; for Purity change on 7 d / Purity change on 26 d: reversed phase chromatography 214 nm; for Purity change on 7 d: purity on 7 d − purity on 0 d; for Purity change on 26 d: purity on 26 d − purity on 0 d
Method in brief: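 Polypeptide derivative lyophilisate (1 mg/mL) with sodium dihydrogen phosphate (1.42 mg/mL) in water, pH about 7.4, sterile-filtered, vialed and held at 40° C; sampled on days 7 and 26. After centrifugation, concentration and purity (target/total peak area) by C18 RP-HPLC, TFA/ACN gradient, 280 and 214 nm.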

[2] = molecular target: T1, calcitonin receptor (hCTR) (Homo sapiens, UniProt P30988); experiment: Calcitonin receptor agonism, CRE-luciferase assay in stably transfected CHO-K1/CALCR/Ga15 cells; assay type: cell-based; settings: for Fold change in activity against hCTR: relative to D1 as benchmark
T1 construct: host or cells: CHO-K1/CALCR/Ga15 cells, further stably transfected with a CRE-luciferase plasmid
T1 sequence (P30988 25-474): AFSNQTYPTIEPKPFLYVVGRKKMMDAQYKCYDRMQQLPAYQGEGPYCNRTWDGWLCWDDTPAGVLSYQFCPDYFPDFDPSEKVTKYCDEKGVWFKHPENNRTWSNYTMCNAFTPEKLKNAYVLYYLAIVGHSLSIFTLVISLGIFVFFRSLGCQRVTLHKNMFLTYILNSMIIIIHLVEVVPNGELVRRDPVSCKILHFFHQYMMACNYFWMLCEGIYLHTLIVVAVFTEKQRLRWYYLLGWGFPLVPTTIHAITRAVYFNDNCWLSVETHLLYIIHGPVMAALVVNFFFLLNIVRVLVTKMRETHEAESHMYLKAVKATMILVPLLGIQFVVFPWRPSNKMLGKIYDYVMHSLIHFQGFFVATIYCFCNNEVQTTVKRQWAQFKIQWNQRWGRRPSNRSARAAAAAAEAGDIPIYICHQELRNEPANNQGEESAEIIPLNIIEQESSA
Method: Using the standard protocol, CHO-K1/CALCR/Ga15 cells (purchased from GenScript, with the calcitonin receptor constructed already) were transfected with a plasmid containing a luciferase expression cassette driven by multiple copies of cAMP response elements (CREs). The cells were cultured in an F12 medium containing 200 ug/mL Zeocin, 2 ug/mL puromycin, and 100 ug/mL hygromycin to afford a stably transfected calcitonin receptor/CRE-luc cell line.
(§1) To each well of a white 96-well plate was added 50 μL of the tested sample solution at a respective concentration.
The stably transfected calcitonin receptor/CRE-luc CHO cells were resuspended in the growth medium at a certain density, and 50 μL of the cell suspension was added at a density of about 20,000 cells per well to the white 96-well plate containing the tested sample solution. After incubation of 24 hours at 37° C. and 5% CO2, 100 μL of a Luciferase substrate was added to each well, incubated for 3 minutes, and finally was tested for luminescence on SpectraMax L (Molecular Devices) with the software SoftMax Pro 7.0.3 GxP. A standard curve was plotted using the fluorescent intensities for calculation of EC50.

amylin receptor (hAMY3R) = molecular target: T2, amylin receptor (hAMY3R) (Homo sapiens, UniProt O60896+P30988); experiment: Amylin receptor agonism testing, CRE-luciferase assay in stably transfected CHO-K1/Ga15/AMY3 cells; assay type: cell-based; settings: for Fold change in activity against hAMY3R: relative to D1 as benchmark; for increase in the ratio of activity against the amylin receptor to agonistic activity against the calcitonin receptor: relative to the benchmark D1
T2 construct: host or cells: CHO-K1/Ga15/AMY3 cells, further stably transfected with a CRE-luciferase plasmid
T2 sequence (P30988 25-474): T1 sequence (P30988 25-474)
T2 sequence (O60896 24-148): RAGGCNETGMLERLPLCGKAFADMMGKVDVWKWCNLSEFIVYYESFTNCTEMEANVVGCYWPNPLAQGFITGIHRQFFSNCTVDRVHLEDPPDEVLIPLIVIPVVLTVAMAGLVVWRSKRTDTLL
From the text: The objective of this assay is to test the potency of the polypeptide derivatives in the present application on amylin and calcitonin receptors in vitro using a luciferase assay.
Using the standard protocol for construction of an amylin receptor/CRE-luc cell line, CHO-K1/Ga15/AMY3 cells (purchased from GenScript, with the calcitonin receptor and the receptor activity modifying peptide (RAMP) constructed already) were transfected with a plasmid containing a luciferase expression cassette driven by multiple copies of cAMP response elements (CREs). The cells were cultured in an F12 medium containing 200 ug/mL Zeocin, 2 ug/mL puromycin, 100 ug/mL hygromycin, and 400 ug/mL G418 to afford a stably transfected amylin receptor/CRE-luc cell line.
as §1
The stably transfected amylin receptor/CRE-luc CHO cells were resuspended in the growth medium at a certain density, and 50 μL of the cell suspension was added at a density of about 20,000 cells per well to the white 96-well plate containing the tested sample solution. After incubation of 24 hours at 37° C. and 5% CO2, 100 μL of a Luciferase substrate was added to each well, incubated for 3 minutes, and finally was tested for luminescence on SpectraMax L (Molecular Devices) with the software SoftMax Pro 7.0.3 GxP. A standard curve was plotted using the fluorescent intensities for calculation of EC50.

[3] = incubation of 24 hours, Table 4, read-out: EC50, activity against the calcitonin receptor in cells
[4] = incubation of 24 hours, Table 3, read-out: EC50, activity against the amylin receptor in cells

| SMILES | Concentration change on 7 d [1] | Concentration change on 26 d [1] | Purity change on 7 d [1] | Purity change on 26 d [1] | Fold change in activity against hCTR [2] | EC50 (amylin receptor (hAMY3R); Table 5 integrated analysis, read-out: hAMY3R EC50) | Fold change in activity against hAMY3R (amylin receptor (hAMY3R)) | EC50 [2, 3] | increase in the ratio of activity against the amylin receptor to agonistic activity against the calcitonin receptor (amylin receptor (hAMY3R)) | EC50 (amylin receptor (hAMY3R); [4]) | EC50 ([2]; Table 5 integrated analysis, read-out: hCTR EC50) | increase in agonistic activity against the amylin receptor (amylin receptor (hAMY3R); compared with M17) |
| --- | --- | --- | --- | --- | --- | --- | --- | --- | --- | --- | --- | --- |
| CC(C)C[C@H](NC(=O)[C@H](CCCNC(=N)N)NC(=O)CNC(=O)[C@H](CC(C)C)NC(=O)[C@@H](NC(=O)[C@H](C)NC(=O)[C@@H](NC(=O)[C@H](CO)NC(=O)[C@H](CC(C)C)NC(=O)[C@H](CCC(N)=O)NC(=O)[C@H](CO)NC(=O)[C@H](C)NC(=O)[C@H]1CC[C@H](CNC(=O)CCCCCCCCCCCCCCCCC(=O)O)CC1)[C@@H](C)O)C(C)C)C(=O)N[C@@H](CO)C(=O)N[C@@H](CC(=O)O)C(=O)N[C@@H](CCC(=O)O)C(=O)N[C@@H](CC(C)C)C(=O)N[C@@H](Cc1c[nH]cn1)C(=O)N[C@@H](CCCNC(=N)N)C(=O)N[C@@H](CC(C)C)C(=O)N[C@@H](CCC(N)=O)C(=O)N[C@@H](CC(=O)O)C(=O)N[C@@H](Cc1ccc(O)cc1)C(=O)N1CCC[C@H]1C(=O)N[C@@H](CCCNC(=N)N)C(=O)N[C@H](C(=O)N[C@@H](CC(=O)O)C(=O)N[C@H](C(=O)NCC(=O)N[C@@H](CO)C(=O)NCC(=O)N[C@@H](CO)C(=O)N1CCC[C@H]1C(N)=O)C(C)C)[C@@H](C)O [M15] ({C18 diacid-Trx}-ASQLSTAVLGRLSDELHRLQDYPRTDVGSGSP-NH2) | No change (concentration change of less than 1% (denoted as “no change”)) | −10.824% | No change | −5.67% | 0.183 | 119 pM | 0.303 | – | – | – | – | – |
| CC(C)C[C@H](NC(=O)[C@H](CCCNC(=N)N)NC(=O)CNC(=O)[C@H](CC(C)C)NC(=O)[C@@H](NC(=O)[C@H](C)NC(=O)[C@@H](NC(=O)[C@H](CO)NC(=O)[C@H](CC(C)C)NC(=O)[C@H](CCC(N)=O)NC(=O)[C@H](CO)NC(=O)[C@H](C)NC(=O)C1CCN(C(=O)CCCCCCCCCCCCCCCCCCC(=O)O)CC1)[C@@H](C)O)C(C)C)C(=O)N[C@@H](CO)C(=O)N[C@@H](CC(=O)O)C(=O)N[C@@H](CCC(=O)O)C(=O)N[C@@H](CC(C)C)C(=O)N[C@@H](Cc1c[nH]cn1)C(=O)N[C@@H](CCCNC(=N)N)C(=O)N[C@@H](CC(C)C)C(=O)N[C@@H](CCC(N)=O)C(=O)N[C@@H](CC(=O)O)C(=O)N[C@@H](Cc1ccc(O)cc1)C(=O)N1CCC[C@H]1C(=O)N[C@@H](CCCNC(=N)N)C(=O)N[C@H](C(=O)N[C@@H](CC(=O)O)C(=O)N[C@H](C(=O)NCC(=O)N[C@@H](CO)C(=O)NCC(=O)N[C@@H](CO)C(=O)N1CCC[C@H]1C(N)=O)C(C)C)[C@@H](C)O [M16] ({C20 diacid-Inp}-ASQLSTAVLGRLSDELHRLQDYPRTDVGSGSP-NH2) | −2.883% | −3.036% | 3.42% | 2.18% | 0.229 | – | 0.439 | 0.376 nM | – | – | – | – |
| CC(C)C[C@H](NC(=O)[C@H](CCCNC(=N)N)NC(=O)CNC(=O)[C@H](CC(C)C)NC(=O)[C@@H](NC(=O)[C@H](C)NC(=O)[C@@H](NC(=O)[C@H](CO)NC(=O)[C@H](CC(C)C)NC(=O)[C@H](CCC(N)=O)NC(=O)[C@H](CO)NC(=O)[C@H](C)NC(=O)C1CCN(C(=O)CCCCCCCCCCCCCCCCC(=O)O)CC1)[C@@H](C)O)C(C)C)C(=O)N[C@@H](CO)C(=O)N[C@@H](CC(=O)O)C(=O)N[C@@H](CCC(=O)O)C(=O)N[C@@H](CC(C)C)C(=O)N[C@@H](Cc1c[nH]cn1)C(=O)N[C@@H](CCCNC(=N)N)C(=O)N[C@@H](CC(C)C)C(=O)N[C@@H](CCC(N)=O)C(=O)N[C@@H](CC(=O)O)C(=O)N[C@@H](Cc1ccc(O)cc1)C(=O)N1CCC[C@H]1C(=O)N[C@@H](CCCNC(=N)N)C(=O)N[C@H](C(=O)N[C@@H](CC(=O)O)C(=O)N[C@H](C(=O)NCC(=O)N[C@@H](CO)C(=O)NCC(=O)N[C@@H](CO)C(=O)N1CCC[C@H]1C(N)=O)C(C)C)[C@@H](C)O [M17] ({C18 diacid-Inp}-ASQLSTAVLGRLSDELHRLQDYPRTDVGSGSP-NH2) | −1.927% | −5.985% | −1% | −3.9% | 0.332 | – | 0.571 | 0.259 nM | 1.7 fold | – | – | – |
| CC(C)C[C@H](NC(=O)[C@H](CCCNC(=N)N)NC(=O)CNC(=O)[C@H](CC(C)C)NC(=O)[C@@H](NC(=O)[C@H](C)NC(=O)[C@@H](NC(=O)[C@H](CO)NC(=O)[C@H](CC(C)C)NC(=O)[C@H](CCC(N)=O)NC(=O)[C@H](CO)NC(=O)[C@H](C)NC(=O)COCCOCCNC(=O)COCCOCCNC(=O)[C@H](CCC(=O)O)NC(=O)CCCCCCCCCCCCCCCCC(=O)O)[C@@H](C)O)C(C)C)C(=O)N[C@@H](CO)C(=O)N[C@@H](CC(=O)O)C(=O)N[C@@H](CCC(=O)O)C(=O)N[C@@H](CC(C)C)C(=O)N[C@@H](Cc1c[nH]cn1)C(=O)N[C@@H](CCCNC(=N)N)C(=O)N[C@@H](CC(C)C)C(=O)N[C@@H](CCC(N)=O)C(=O)N[C@@H](CC(=O)O)C(=O)N[C@@H](Cc1ccc(O)cc1)C(=O)N1CCC[C@H]1C(=O)N[C@@H](CCCNC(=N)N)C(=O)N[C@H](C(=O)N[C@@H](CC(=O)O)C(=O)N[C@H](C(=O)NCC(=O)N[C@@H](CO)C(=O)NCC(=O)N[C@@H](CO)C(=O)N1CCC[C@H]1C(N)=O)C(C)C)[C@@H](C)O [M24] ({C18 diacid}-E[AEEA][AEEA]ASQLSTAVLGRLSDELHRLQDYPRTDVGSGSP-NH2) | – | −3.954% | −1.59% | −7.24% | 1.061 | – | 5.143 | 0.081 nM | – | 7 pM | – | – |
| CC(C)C[C@H](NC(=O)[C@H](CCCNC(=N)N)NC(=O)CNC(=O)[C@H](CC(C)C)NC(=O)[C@@H](NC(=O)[C@H](C)NC(=O)[C@@H](NC(=O)[C@H](CO)NC(=O)[C@H](CC(C)C)NC(=O)[C@H](CCC(N)=O)NC(=O)[C@H](CO)NC(=O)[C@H](C)NC(=O)COCCOCCNC(=O)COCCOCCNC(=O)[C@H](CC(=O)O)NC(=O)CCCCCCCCCCCCCCCCC(=O)O)[C@@H](C)O)C(C)C)C(=O)N[C@@H](CO)C(=O)N[C@@H](CC(=O)O)C(=O)N[C@@H](CCC(=O)O)C(=O)N[C@@H](CC(C)C)C(=O)N[C@@H](Cc1c[nH]cn1)C(=O)N[C@@H](CCCNC(=N)N)C(=O)N[C@@H](CC(C)C)C(=O)N[C@@H](CCC(N)=O)C(=O)N[C@@H](CC(=O)O)C(=O)N[C@@H](Cc1ccc(O)cc1)C(=O)N1CCC[C@H]1C(=O)N[C@@H](CCCNC(=N)N)C(=O)N[C@H](C(=O)N[C@@H](CC(=O)O)C(=O)N[C@H](C(=O)NCC(=O)N[C@@H](CO)C(=O)NCC(=O)N[C@@H](CO)C(=O)N1CCC[C@H]1C(N)=O)C(C)C)[C@@H](C)O [M26] ({C18 diacid}-D[AEEA][AEEA]ASQLSTAVLGRLSDELHRLQDYPRTDVGSGSP-NH2) | −2.402% | −2.235% | −2.39% | −2.68% | – | – | – | 0.024 nM | – | 8 pM | – | – |
| CC(C)C[C@H](NC(=O)[C@H](CCCNC(=N)N)NC(=O)CNC(=O)[C@H](CC(C)C)NC(=O)[C@@H](NC(=O)[C@H](C)NC(=O)[C@@H](NC(=O)[C@H](CO)NC(=O)[C@H](CC(C)C)NC(=O)[C@H](CCC(N)=O)NC(=O)[C@H](CO)NC(=O)[C@H](C)NC(=O)COCCOCCNC(=O)COCCOCCNC(=O)C1CCN(C(=O)CCCCCCCCCCCCCCCCC(=O)O)CC1)[C@@H](C)O)C(C)C)C(=O)N[C@@H](CO)C(=O)N[C@@H](CC(=O)O)C(=O)N[C@@H](CCC(=O)O)C(=O)N[C@@H](CC(C)C)C(=O)N[C@@H](Cc1c[nH]cn1)C(=O)N[C@@H](CCCNC(=N)N)C(=O)N[C@@H](CC(C)C)C(=O)N[C@@H](CCC(N)=O)C(=O)N[C@@H](CC(=O)O)C(=O)N[C@@H](Cc1ccc(O)cc1)C(=O)N1CCC[C@H]1C(=O)N[C@@H](CCCNC(=N)N)C(=O)N[C@H](C(=O)N[C@@H](CC(=O)O)C(=O)N[C@H](C(=O)NCC(=O)N[C@@H](CO)C(=O)NCC(=O)N[C@@H](CO)C(=O)N1CCC[C@H]1C(N)=O)C(C)C)[C@@H](C)O [M30] ({C18 diacid-Inp-AEEA-AEEA}-ASQLSTAVLGRLSDELHRLQDYPRTDVGSGSP-NH2) | – | −5.268% | No change | −4.34% | 0.848 | – | 36.000 | – | about 42.5 fold | 1 pM | 0.101 nM | ~70 folds |
